Reference: patent US11236044B2, “Selective inhibitors of 12(S)-lipoxygenase (12-LOX) and methods for use of the same” (THE REGENTS OF THE UNIVERSITY OF MICHIGAN, priority 2018, dated 2022)
Where two headings read alike, the source gives them in different places.

Legend:
[1] = Pharmacokinetic study of the inhibitors in mice blood plasma (PO and IV); format: in vivo; conditions: for concentration at 2 h / concentration at 4 h / concentration at 7 h: mouse, plasma, 30 mg/kg
Procedure: Pharmacokinetic Study of the Inhibitors in Mice Blood Plasma
The blood plasma concentration of compounds A1, A2, and A4 in mice was determined following per os, oral compound administration (“PO”) and intravenous (“IV”) administration
Calibration curve. The concentration range was evaluated from 2.5-5000 ng/ml for compound A2, 1-5000 ng/ml for compound A4, and 5-5000 ng/ml for compound A1. The curve was built with linear regression with weighing (1/X2). The linear regression analysis was performed by plotting the peak area ratio (y) against the concentration (x) in ng/mL.
Instrument Conditions. The LC-MS and mass spectrometry conditions for the compounds tested are shown below.
Results. The individual and average compound A1, A2, and A4 concentration-time data for IV and PO dosed groups are listed in Table 1, and graphically presented in FIG. 1.

[2] = cited from earlier work
[3] = molecular target: reticulocyte 15-human lipoxygenase type-1 (Homo sapiens, UniProt P16050); conditions: 12-LOX versus paralog; cited from earlier work
Chain of reticulocyte 15-human lipoxygenase type-1 (P16050 whole entry): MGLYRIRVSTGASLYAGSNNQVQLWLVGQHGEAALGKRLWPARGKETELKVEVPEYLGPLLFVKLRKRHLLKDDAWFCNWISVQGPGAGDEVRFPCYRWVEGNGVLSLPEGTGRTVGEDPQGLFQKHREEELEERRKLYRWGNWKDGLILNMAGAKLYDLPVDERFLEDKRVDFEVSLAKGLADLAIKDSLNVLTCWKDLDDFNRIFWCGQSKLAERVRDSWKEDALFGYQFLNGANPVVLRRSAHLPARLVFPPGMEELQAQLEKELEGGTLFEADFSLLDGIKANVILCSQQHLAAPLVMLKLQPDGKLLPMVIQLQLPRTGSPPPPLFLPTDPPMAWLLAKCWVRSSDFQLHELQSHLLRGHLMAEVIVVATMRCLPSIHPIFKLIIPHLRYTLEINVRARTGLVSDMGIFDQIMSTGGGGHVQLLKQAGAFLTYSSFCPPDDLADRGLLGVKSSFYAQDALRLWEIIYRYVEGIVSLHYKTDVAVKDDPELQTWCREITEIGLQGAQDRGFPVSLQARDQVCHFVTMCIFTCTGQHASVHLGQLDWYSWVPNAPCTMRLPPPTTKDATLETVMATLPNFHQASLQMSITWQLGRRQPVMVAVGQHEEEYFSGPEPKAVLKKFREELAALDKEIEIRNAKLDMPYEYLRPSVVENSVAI

human COX-2 = molecular target: T1, human COX-2 (Homo sapiens, UniProt P35354); conditions: 12-LOX versus human COX-2; cited from earlier work
T1 sequence (P35354 18-604): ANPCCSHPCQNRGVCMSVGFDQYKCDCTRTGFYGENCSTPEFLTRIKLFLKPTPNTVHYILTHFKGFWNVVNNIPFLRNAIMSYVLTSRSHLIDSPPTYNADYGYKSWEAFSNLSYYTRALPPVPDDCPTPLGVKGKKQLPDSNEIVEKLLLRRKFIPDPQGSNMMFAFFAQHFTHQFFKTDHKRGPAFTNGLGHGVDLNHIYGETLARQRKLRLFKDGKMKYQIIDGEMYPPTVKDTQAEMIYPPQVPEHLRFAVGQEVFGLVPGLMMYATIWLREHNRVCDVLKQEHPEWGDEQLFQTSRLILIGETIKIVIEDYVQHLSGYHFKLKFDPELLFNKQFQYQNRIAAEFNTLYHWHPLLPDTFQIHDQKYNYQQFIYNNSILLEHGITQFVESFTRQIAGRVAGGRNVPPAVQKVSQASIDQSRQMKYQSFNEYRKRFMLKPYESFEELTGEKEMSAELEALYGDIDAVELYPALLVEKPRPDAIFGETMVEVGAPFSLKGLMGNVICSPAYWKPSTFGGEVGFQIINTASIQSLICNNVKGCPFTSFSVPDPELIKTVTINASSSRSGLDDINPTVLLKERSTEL

[4] = cited from earlier work; remark: listed apart in the source
[5] = in vivo; cited from earlier work
[6] = molecular target: T2, bovine cyclooxygenase (“COX”)-1 (Bos taurus, UniProt O62664); conditions: 12-LOX versus bovine COX-1; cited from earlier work
T2 sequence (O62664 25-600): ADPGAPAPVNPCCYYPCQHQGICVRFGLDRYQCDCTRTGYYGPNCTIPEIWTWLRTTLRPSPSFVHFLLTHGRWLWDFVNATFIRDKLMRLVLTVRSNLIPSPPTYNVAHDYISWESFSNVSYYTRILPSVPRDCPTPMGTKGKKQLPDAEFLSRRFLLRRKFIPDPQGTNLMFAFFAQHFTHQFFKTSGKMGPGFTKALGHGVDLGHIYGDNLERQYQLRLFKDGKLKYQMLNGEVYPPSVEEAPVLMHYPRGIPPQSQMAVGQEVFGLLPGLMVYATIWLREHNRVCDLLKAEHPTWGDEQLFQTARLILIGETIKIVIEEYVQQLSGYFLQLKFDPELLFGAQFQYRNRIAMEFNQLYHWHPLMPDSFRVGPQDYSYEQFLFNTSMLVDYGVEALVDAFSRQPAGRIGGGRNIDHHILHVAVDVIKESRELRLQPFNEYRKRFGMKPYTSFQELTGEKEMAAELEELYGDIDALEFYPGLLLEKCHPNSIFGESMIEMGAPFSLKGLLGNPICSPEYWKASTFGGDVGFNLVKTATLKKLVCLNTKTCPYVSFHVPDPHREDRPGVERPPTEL

5-human lipoxygenase = molecular target: T3, 5-human lipoxygenase (Homo sapiens, UniProt P09917); conditions: 12-LOX versus paralog; cited from earlier work
T3 sequence (P09917 1-674): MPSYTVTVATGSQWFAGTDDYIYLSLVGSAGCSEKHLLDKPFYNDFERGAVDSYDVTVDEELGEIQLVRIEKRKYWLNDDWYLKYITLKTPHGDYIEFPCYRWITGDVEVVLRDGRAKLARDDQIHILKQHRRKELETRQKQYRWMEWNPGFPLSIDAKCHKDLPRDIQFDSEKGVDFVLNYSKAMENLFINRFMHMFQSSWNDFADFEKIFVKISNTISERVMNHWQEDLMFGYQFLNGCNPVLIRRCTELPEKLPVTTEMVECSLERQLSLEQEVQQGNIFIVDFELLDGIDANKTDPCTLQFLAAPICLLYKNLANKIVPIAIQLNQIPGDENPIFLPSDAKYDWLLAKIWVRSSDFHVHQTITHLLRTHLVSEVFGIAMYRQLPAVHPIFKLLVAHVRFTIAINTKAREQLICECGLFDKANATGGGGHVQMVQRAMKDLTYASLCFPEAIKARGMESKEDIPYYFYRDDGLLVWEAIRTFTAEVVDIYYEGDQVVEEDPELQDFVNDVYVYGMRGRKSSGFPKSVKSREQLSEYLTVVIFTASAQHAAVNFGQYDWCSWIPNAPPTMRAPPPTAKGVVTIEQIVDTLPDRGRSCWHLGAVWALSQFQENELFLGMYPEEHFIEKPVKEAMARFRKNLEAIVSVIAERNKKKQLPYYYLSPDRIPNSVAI

[7] = system: thrombus formation and vessel occlusion; conditions: cited from earlier work
[8] = molecular target: T4, epithelial 15-human lipoxygenase type-2 (Homo sapiens, UniProt O15296); conditions: 12-LOX versus paralog; cited from earlier work
T4 sequence (O15296 1-676): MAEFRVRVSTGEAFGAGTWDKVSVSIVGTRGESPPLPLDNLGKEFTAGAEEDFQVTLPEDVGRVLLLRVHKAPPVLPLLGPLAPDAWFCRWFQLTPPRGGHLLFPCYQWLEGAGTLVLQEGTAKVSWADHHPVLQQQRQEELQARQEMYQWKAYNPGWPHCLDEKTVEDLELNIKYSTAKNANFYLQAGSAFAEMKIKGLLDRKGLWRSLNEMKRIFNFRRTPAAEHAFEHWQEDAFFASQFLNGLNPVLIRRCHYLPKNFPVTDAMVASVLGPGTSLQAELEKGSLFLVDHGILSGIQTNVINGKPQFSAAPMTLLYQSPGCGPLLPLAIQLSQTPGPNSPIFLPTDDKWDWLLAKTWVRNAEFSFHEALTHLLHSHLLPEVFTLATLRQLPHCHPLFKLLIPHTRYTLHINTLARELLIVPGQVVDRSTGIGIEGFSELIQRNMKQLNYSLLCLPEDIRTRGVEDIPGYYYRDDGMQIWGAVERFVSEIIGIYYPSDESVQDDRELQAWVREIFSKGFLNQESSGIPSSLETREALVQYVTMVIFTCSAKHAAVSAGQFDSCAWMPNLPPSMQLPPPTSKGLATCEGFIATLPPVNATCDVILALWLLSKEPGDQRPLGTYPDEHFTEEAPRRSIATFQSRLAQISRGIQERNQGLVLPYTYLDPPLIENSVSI

[9] = iv, IV 30 mg/kg, 2 h, n=3 (outliers excluded), read-out: Concentration in Plasma, Mean
[10] = iv, IV 30 mg/kg, 2 h, read-out: Concentration in Plasma, Mouse 1
[11] = iv, IV 30 mg/kg, 2 h, read-out: Concentration in Plasma, Mouse 2
[12] = iv, IV 30 mg/kg, 2 h, read-out: Concentration in Plasma, Mouse 3
[13] = iv, IV 30 mg/kg, 4 h, read-out: Concentration in Plasma, Mouse 1
[14] = iv, IV 30 mg/kg, 4 h, read-out: Concentration in Plasma, Mouse 3
[15] = iv, IV 30 mg/kg, 7 h, n=3 (outliers excluded), read-out: Concentration in Plasma, Mean
[16] = iv, IV 30 mg/kg, 7 h, read-out: Concentration in Plasma, Mouse 1
[17] = iv, IV 30 mg/kg, 7 h, read-out: Concentration in Plasma, Mouse 2
[18] = iv, IV 30 mg/kg, 7 h, read-out: Concentration in Plasma, Mouse 3
[19] = po, PO 30 mg/kg, 2 h, n=3 (outliers excluded), read-out: Concentration in Plasma, Mean
[20] = po, PO 30 mg/kg, 2 h, read-out: Concentration in Plasma, Mouse 3
[21] = po, PO 30 mg/kg, 4 h, n=3 (outliers excluded), read-out: Concentration in Plasma, Mean
[22] = po, PO 30 mg/kg, 4 h, read-out: Concentration in Plasma, Mouse 1
[23] = po, PO 30 mg/kg, 4 h, read-out: Concentration in Plasma, Mouse 3
[24] = po, PO 30 mg/kg, 7 h, n=3 (outliers excluded), read-out: Concentration in Plasma, Mean
[25] = po, PO 30 mg/kg, 7 h, read-out: Concentration in Plasma, Mouse 1
[26] = po, PO 30 mg/kg, 7 h, read-out: Concentration in Plasma, Mouse 2

In the case of `COc1cccc(CNc2ccc(S(=O)(=O)Nc3cccc(C(F)(F)F)c3)cc2)c1O` [Compound A2], the “Concentration in Plasma, Mouse 2” value ([1]; IV 30 mg/kg, 4 h) was “*1369.6 ng/ml”, the “Concentration in Plasma, Mouse 2” value ([1]; PO 30 mg/kg, 2 h) was “*6042.8 ng/ml” and the “Concentration in Plasma, Mouse 3” value ([1]; PO 30 mg/kg, 7 h) was “*301.8 ng/ml”. For the same molecule, the concentration at 2 h [1, 9] was 199 ng/mL, the concentration at 2 h [1, 10] was 144 ng/mL and the concentration at 2 h [1, 11] was 333 ng/mL. The concentration at 2 h [1, 12] was 118 ng/mL, the concentration at 4 h ([1]; iv, IV 30 mg/kg, 4 h, n=3 (outliers excluded), read-out: Concentration in Plasma, Mean) was 112 ng/mL and the concentration at 4 h [1, 13] was 127 ng/mL. It also gave a concentration at 4 h [1, 14] of 96 ng/mL, a concentration at 7 h [1, 15] of 31 ng/mL and a concentration at 7 h [1, 16] of 49.3 ng/mL. The concentration at 7 h [1, 17] was 16.4 ng/mL, the concentration at 7 h [1, 18] was 27.4 ng/mL and the concentration at 2 h [1, 19] was 145 ng/mL. The concentration at 2 h ([1]; po, PO 30 mg/kg, 2 h, read-out: Concentration in Plasma, Mouse 1) was 59 ng/mL, the concentration at 2 h [1, 20] was 230 ng/mL and the concentration at 4 h [1, 21] was 74.3 ng/mL. For the same molecule, the concentration at 4 h [1, 22] was 38.9 ng/mL, the concentration at 4 h ([1]; po, PO 30 mg/kg, 4 h, read-out: Concentration in Plasma, Mouse 2) was 103 ng/mL and the concentration at 4 h [1, 23] was 81.2 ng/mL. The concentration at 7 h [1, 24] was 91.3 ng/mL, the concentration at 7 h [1, 25] was 106 ng/mL and the concentration at 7 h [1, 26] was 76.8 ng/mL.

With `COc1cccc(CNc2ccc(S(=O)(=O)Nc3cccc(C4(C(F)(F)F)CC4)c3)cc2)c1O` [Compound A4, 4-((2-hydroxy-3-methoxybenzyl)amino)-N-(3-(1-(trifluoromethyl)cyclopropyl)phenyl)benzenesulfonamide] the “Concentration in Plasma, Mouse 1” value ([1]; PO 30 mg/kg, 2 h) was “*20.2 ng/ml”, the “Concentration in Plasma, Mouse 2” value ([1]; PO 30 mg/kg, 4 h) was “*127.5 ng/ml” and the concentration at 2 h [1, 9] was 112 ng/mL. It also gave a concentration at 2 h [1, 10] of 94.2 ng/mL, a concentration at 2 h [1, 11] of 172 ng/mL and a concentration at 2 h [1, 12] of 71 ng/mL. It also gave a concentration at 4 h [1, 13] of 20.8 ng/mL, a concentration at 4 h ([1]; iv, IV 30 mg/kg, 4 h, read-out: Concentration in Plasma, Mouse 2) of 28.8 ng/mL and a concentration at 4 h [1, 14] of 20.6 ng/mL. It also gave a concentration at 7 h [1, 15] of 10.2 ng/mL, a concentration at 7 h [1, 16] of 24.1 ng/mL and a concentration at 7 h [1, 17] of 5.6 ng/mL. For the same molecule, the concentration at 7 h [1, 18] was 0.8 ng/mL, the concentration at 2 h [1, 19] was 5260 ng/mL and the concentration at 2 h ([1]; po, PO 30 mg/kg, 2 h, read-out: Concentration in Plasma, Mouse 2) was 642 ng/mL. For the same molecule, the concentration at 2 h [1, 20] was 410 ng/mL, the concentration at 4 h [1, 21] was 33.6 ng/mL and the concentration at 4 h [1, 22] was 33.4 ng/mL. It also gave a concentration at 4 h [1, 23] of 33.8 ng/mL, a concentration at 7 h [1, 24] of 29 ng/mL and a concentration at 7 h [1, 25] of 33.2 ng/mL. It also gave a concentration at 7 h [1, 26] of 22.9 ng/mL and a concentration at 7 h ([1]; po, PO 30 mg/kg, 7 h, read-out: Concentration in Plasma, Mouse 3) of 30.9 ng/mL.

For `COc1cccc(CNc2ccc(S(=O)(=O)Nc3nc4ccccc4s3)cc2)c1O` [ML355], the solubility [2] is listed as “limited solubility”, the “selectivity versus reticulocyte 15-human lipoxygenase type-1” value [3] is listed as > 50 fold and the “selectivity versus human COX-2” value (human COX-2) is listed as > 100 fold. For the same molecule, the “tolerance in preclinical studies” value [4] was “relatively good tolerance”, the pharmacokinetics [5] was “reasonable pharmacokinetics” and the “selectivity versus bovine COX-1” value [6] was > 100 fold. The “selectivity versus 5-human lipoxygenase” value (5-human lipoxygenase) was > 50 fold, the “thrombus formation and vessel occlusion in vivo” value [7] was “impair thrombus formulation and vessel occlusion in vivo” and the effects on hemostasis ([7]; in vivo) was “minimal affects on hemostasis”. The “selectivity versus epithelial 15-human lipoxygenase type-2” value [8] was > 50 fold.
